In patent US11554171B2, “Compounds and methods for the targeted degradation of bromodomain-containing proteins” (Arvinas Operations, Inc., priority 2015, dated 2023):

Test system: c-myc in 22RV-1 cells
Assay: Human c-myc ELISA assay
Type: cell-based
Conditions: Homo sapiens; for Emax: 22Rv1, 18 h, read-out: Degradation of BRD4: Maximum inhibition (%) c-Myc ELISA in 22RV1 cells; for DC50: 22Rv1, read-out: Degradation of BRD4: DC50 (uM) c-Myc ELISA in 22RV1 cells
Summary of the method: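 c-myc levels measured by ELISA in RIPA lysates of 22RV-1 cells, calibrated with a 333-0 pg/ml standard curve. Lysates came from cells exposed for 18 h to an 8-point, 1:3 dose series starting at 300 nM or 1 μM final in 0.1% DMSO. Suppression potency given as DC50.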

DC50 [µM] | SMILES | Emax [%]
0.1 to 1 | Cc1ncsc1-c1ccc(CNC(=O)[C@@H]2C[C@@H](O)CN2C(=O)[C@@H](NC(=O)COCCOCCOCCOCCOCCOCCNC(=O)C[C@@H]2N=C(c3ccc(Cl)cc3)c3c(sc(C)c3C)-n3c(C)nnc32)C(C)(C)C)cc1 [Example 4, (2S,4R)-1-[(2S)-2-(20-{2-[(9S)-7-(4-chlorophenyl)-4,5,13-trimethyl-3-thia-1,8,11,12-tetraazatricyclo[8.3.0.0^2,^6]trideca-2(6),4,7,10,12-pentaen-9-yl]acetamido}-3,6,9,12,15,18-hexaoxaicosanamido)-3,3-dimethylbutanoyl]-4-hydroxy-N-{[4-(4-methyl-1,3-thiazol-5-yl)phenyl]methyl}-pyrrolidine-2-carboxamide] | 62.2
0.01 to 0.1 | Cc1ncsc1-c1ccc([C@H](C)NC(=O)[C@@H]2C[C@@H](O)CN2C(=O)[C@H](C(C)C)n2cc(-c3cc(O[C@H]4C[C@@H](NC(=O)C[C@@H]5N=C(c6ccc(Cl)cc6)c6c(sc(C)c6C)-n6c(C)nnc65)C4)ccn3)cn2)cc1 [Example 302] | 92
> 1 | Cc1ncsc1-c1ccc(CNC(=O)[C@@H]2C[C@@H](O)CN2C(=O)[C@@H](NC(=O)COCCn2ccc(-c3ccc([C@@H](C)NC(=O)C[C@@H]4N=C(c5ccc(Cl)cc5)c5c(sc(C)c5C)-n5c(C)nnc54)cc3)cc2=O)C(C)(C)C)cc1 [Example 35] | 37
0.01 to 0.1 | Cc1ncsc1-c1ccc(CNC(=O)[C@@H]2C[C@@H](O)CN2C(=O)[C@@H](NC(=O)COCCOc2cc(-c3ccc([C@@H](C)NC(=O)C[C@@H]4N=C(c5ccc(Cl)cc5)c5c(sc(C)c5C)-n5c(C)nnc54)cc3)ccn2)C(C)(C)C)cc1 [Example 36, (2S,4R)-1-[(2S)-2-(2-{2-[(4-{4-[(1R)-1-{2-[(9S)-7-(4-chlorophenyl)-4,5,13-trimethyl-3-thia-1,8,11,12-tetraazatricyclo[8.3.0.0^2,^6]trideca-2(6),4,7,10,12-pentaen-9-yl]acetamido}ethyl]phenyl}pyridin-2-yl)oxy]ethoxy}acetamido)-3,3-dimethylbutanoyl]-4-hydroxy-N-{[4-(4-methyl-1,3-thiazol-5-yl)phenyl]methyl}pyrrolidine-2-carboxamide] | 97
< 0.01 | Cc1ncsc1-c1ccc(CNC(=O)[C@@H]2C[C@@H](O)CN2C(=O)[C@@H](NC(=O)COCc2ccc(Oc3cccc(NC(=O)C[C@@H]4N=C(c5ccc(Cl)cc5)c5c(sc(C)c5C)-n5c(C)nnc54)c3)cc2)C(C)(C)C)cc1 [Example 95] | 99.5
0.1 to 1 | Cc1ncsc1-c1ccc(CNC(=O)[C@@H]2C[C@@H](O)CN2C(=O)[C@@H](NC(=O)Cc2ccc(OCCNC(=O)C[C@@H]3N=C(c4ccc(Cl)cc4)c4c(sc(C)c4C)-n4c(C)nnc43)cn2)C(C)(C)C)cc1 [Example 92] | 91.1
< 0.01 | Cc1ncsc1-c1ccc([C@H](C)NC(=O)[C@@H]2C[C@@H](O)CN2C(=O)[C@H](C(C)C)n2cc(-c3cc(F)cc(O[C@H]4C[C@@H](NC(=O)C[C@@H]5N=C(c6ccc(Cl)cc6)c6c(sc(C)c6C)-n6c(C)nnc65)C4)c3)cn2)cc1 [Example 252] | 97.5
> 1 | Cc1ncsc1-c1ccc(CNC(=O)[C@@H]2C[C@@H](O)CN2C(=O)[C@H](C(C)C)N2Cc3ccccc3C2=O)c(OCCOCCOCCOCCOCCNC(=O)C[C@@H]2N=C(c3ccc(Cl)cc3)c3c(sc(C)c3C)-n3c(C)nnc32)c1 [Example 2] | 41
< 0.01 | Cc1ncsc1-c1ccc([C@H](C)NC(=O)[C@@H]2C[C@@H](O)CN2C(=O)[C@@H](NC(=O)CCc2cc(F)cc(O[C@@H](C)CNC(=O)C[C@@H]3N=C(c4ccc(Cl)cc4)c4c(sc(C)c4C)-n4c(C)nnc43)c2)C(C)(C)C)cc1 [Example 200] | 96.5
0.1 to 1 | Cc1ncsc1-c1ccc(CNC(=O)[C@@H]2C[C@@H](O)CN2C(=O)[C@H](C(C)C)N2Cc3ccccc3C2=O)c(OCCOCCOCCOCCNC(=O)C[C@@H]2N=C(c3ccc(Cl)cc3)c3c(sc(C)c3C)-n3c(C)nnc32)c1 [Example 1, (2S,4R)-N-{[2-(2-{2-[2-(2-{2-[(9S)-7-(4-chlorophenyl)-4,5,13-trimethyl-3-thia-1,8,11,12-tetraazatricyclo[8.3.0.0^2,^6]trideca-2(6),4,7,10,12-pentaen-9-yl]acetamido}ethoxy)ethoxy]ethoxy}ethoxy)-4-(4-methyl-1,3-thiazol-5-yl)phenyl]methyl}-4-hydroxy-1-[(2S)-3-methyl-2-(1-oxo-2,3-dihydro-1H-isoindol-2-yl)butanoyl]pyrrolidine-2-carboxamide] | 100
> 1 | Cc1ncsc1-c1ccc(CNC(=O)[C@@H]2C[C@@H](O)CN2C(=O)[C@@H](C(C)C)n2cc(-c3cccc(O[C@H](C)CNC(=O)C[C@@H]4N=C(c5ccc(Cl)cc5)c5c(sc(C)c5C)-n5c(C)nnc54)c3)cn2)cc1 [Example 231] | 39.5
> 1 | Cc1ncsc1-c1ccc(CNC(=O)[C@@H]2C[C@@H](O)CN2C(=O)[C@H](c2cc(OCCN3CC[C@@H](NC(=O)C[C@@H]4N=C(c5ccc(Cl)cc5)c5c(sc(C)c5C)-n5c(C)nnc54)C3)no2)C(C)C)cc1 (single isomer, unassigned) [Example 311] | 43.6
< 0.01 | Cc1ncsc1-c1ccc([C@H](C)NC(=O)[C@@H]2C[C@@H](O)CN2C(=O)[C@@H](NC(=O)COc2ccnc(O[C@H]3C[C@H](NC(=O)C[C@@H]4N=C(c5ccc(Cl)cc5)c5c(sc(C)c5C)-n5c(C)nnc54)C3)c2)C(C)(C)C)cc1 [Example 227] | 100
> 1 | Cc1sc2c(c1C)C(c1ccc(Cl)cc1)=N[C@@H](CC(=O)N[C@H]1C[C@H](Oc3ccc(CC(=O)N[C@H](C(=O)N4C[C@H](O)C[C@H]4C(=O)N[C@H](C)c4ccc(S(C)(=O)=O)cc4)C(C)(C)C)cc3)C1)c1nnc(C)n1-2 [Example 308] | 21
< 0.01 | Cc1ncsc1-c1ccc([C@H](C)NC(=O)[C@@H]2C[C@@H](O)CN2C(=O)[C@H](C(C)C)n2cc(-c3ccnc(N4CCN(C(=O)C[C@@H]5N=C(c6ccc(Cl)cc6)c6c(sc(C)c6C)-n6c(C)nnc65)CC4)c3)cn2)cc1 [Example 322] | 92.6
> 1 | Cc1ncsc1-c1ccc(CNC(=O)[C@@H]2C[C@@H](O)CN2C(=O)[C@@H](C(C)C)n2cc(-c3cccc(O[C@H]4C[C@H](NC(=O)C[C@@H]5N=C(c6ccc(Cl)cc6)c6c(sc(C)c6C)-n6c(C)nnc65)C4)c3)cn2)cc1 [Example 216] | 14.4
< 0.01 | Cc1ncsc1-c1ccc([C@H](C)NC(=O)[C@@H]2C[C@@H](O)CN2C(=O)[C@@H](NC(=O)/C=C/c2ccc(F)c(O[C@@H](C)CNC(=O)C[C@@H]3N=C(c4ccc(Cl)cc4)c4c(sc(C)c4C)-n4c(C)nnc43)c2)C(C)(C)C)cc1 [Example 160] | 94.5
0.1 to 1 | Cc1ncsc1-c1ccc(CNC(=O)[C@@H]2C[C@@H](O)CN2C(=O)[C@@H](NC(=O)COCCN2CCC(c3ccc([C@@H](C)NC(=O)C[C@@H]4N=C(c5ccc(Cl)cc5)c5c(sc(C)c5C)-n5c(C)nnc54)cc3)CC2)C(C)(C)C)cc1 [Example 57] | 94
> 1 | Cc1ncsc1-c1ccc(CNC(=O)[C@@H]2C[C@@H](O)CN2C(=O)[C@@H](C(C)C)n2cc(-c3cccc(O[C@@H](C)CNC(=O)C[C@@H]4N=C(c5ccc(Cl)cc5)c5c(sc(C)c5C)-n5c(C)nnc54)c3)cn2)cc1 [Example 198] | 16

SMILES | DC50 [µM] | Emax [%]
Cc1ncsc1-c1ccc([C@H](C)NC(=O)[C@@H]2C[C@@H](O)CN2C(=O)[C@@H](NC(=O)CN2CCC(O[C@H]3C[C@@H](NC(=O)C[C@@H]4N=C(c5ccc(Cl)cc5)c5c(sc(C)c5C)-n5c(C)nnc54)C3)CC2)C(C)(C)C)cc1 [Example 257, (2S,4R)-1-[(2S)-3,3-dimethyl-2-(2-{4-[(1,3-cis)-3-{2-[(9S)-7-(4-chlorophenyl)-4,5,13-trimethyl-3-thia-1,8,11,12-tetraazatricyclo[8.3.0.0^2,^6]trideca-2(6),4,7,10,12-pentaen-9-yl]acetamido}cyclobutoxy]piperidin-1-yl}acetamido)butanoyl]-4-hydroxy-N-[(1S)-1-[4-(4-methyl-1,3-thiazol-5-yl)phenyl]ethyl]pyrrolidine-2-carboxamide] | 0.01 to 0.1 | 87
Cc1ncsc1-c1ccc([C@H](C)NC(=O)[C@@H]2C[C@@H](O)CN2C(=O)[C@H](C(C)C)n2cc(-c3ccnc(O[C@H]4C[C@H](NC(=O)C[C@@H]5N=C(c6ccc(Cl)cc6)c6c(sc(C)c6C)-n6c(C)nnc65)C4)c3)cn2)cc1 [Example 228, (2S,4R)-4-hydroxy-N-[(1S)-1-[4-(4-methyl-1,3-thiazol-5-yl)phenyl]ethyl]-1-[(2S)-3-methyl-2-(4-{2-[(1r,3r)-3-{2-[(9S)-7-(4-chlorophenyl)-4,5,13-trimethyl-3-thia-1,8,11,12-tetraazatricyclo[8.3.0.0^2,^6]trideca-2(6),4,7,10,12-pentaen-9-yl]acetamido}cyclobutoxy]pyridin-4-yl}-1H-pyrazol-1-yl)butanoyl]pyrrolidine-2-carboxamide] | < 0.01 | 100
Cc1ncsc1-c1ccc([C@H](C)NC(=O)[C@@H]2C[C@@H](O)CN2C(=O)[C@@H](NC(=O)COc2ccc(O[C@H]3C[C@@H](NC(=O)C[C@@H]4N=C(c5ccc(Cl)cc5)c5c(sc(C)c5C)-n5c(C)nnc54)C3)nc2)C(C)(C)C)cc1 [Example 119, (2S,4R)-1-[(2S)-3,3-dimethyl-2-[2-({6-[(1,3-cis)-3-{2-[(9S)-7-(4-chlorophenyl)-4,5,13-trimethyl-3-thia-1,8,11,12-tetraazatricyclo[8.3.0.0^2,^6]trideca-2(6),4,7,10,12-pentaen-9-yl]acetamido}cyclobutoxy]pyridin-3-yl}oxy)acetamido]butanoyl]-4-hydroxy-N-[(1S)-1-[4-(4-methyl-1,3-thiazol-5-yl)phenyl]ethyl]pyrrolidine-2-carboxamide] | < 0.01 | 96
